Legend:
[1] = target: T1, human sEH (Homo sapiens, UniProt P34913); experiment: sEH enzyme kinetics (PHOME hydrolysis, Michaelis-Menten/Dixon analysis); format: biochemical; settings: for type of inhibition of sEH: Lineweaver-Burk and Dixon plots; for Ki: human sEH, PHOME
T1 construct: purchased Cayman Chemical
T1 sequence (P34913 1-555): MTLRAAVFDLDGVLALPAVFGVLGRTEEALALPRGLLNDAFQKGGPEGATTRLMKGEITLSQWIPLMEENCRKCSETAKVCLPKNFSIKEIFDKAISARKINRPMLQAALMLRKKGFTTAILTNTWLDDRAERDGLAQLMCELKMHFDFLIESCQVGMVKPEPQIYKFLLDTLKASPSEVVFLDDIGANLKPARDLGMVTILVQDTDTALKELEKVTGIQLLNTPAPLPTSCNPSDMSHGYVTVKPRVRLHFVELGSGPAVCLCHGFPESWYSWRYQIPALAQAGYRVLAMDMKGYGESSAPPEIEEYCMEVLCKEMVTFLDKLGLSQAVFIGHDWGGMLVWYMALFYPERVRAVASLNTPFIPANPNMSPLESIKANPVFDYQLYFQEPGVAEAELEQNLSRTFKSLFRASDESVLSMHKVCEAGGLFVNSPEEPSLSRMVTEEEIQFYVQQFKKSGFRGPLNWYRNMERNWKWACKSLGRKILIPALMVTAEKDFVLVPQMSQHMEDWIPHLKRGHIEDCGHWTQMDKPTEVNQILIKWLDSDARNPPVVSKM
Experimental: Various concentrations of compound dissolved in DMSO (final DMSO concentration=5% (v/v)) and human sEH (60 ng/mL final concentration; Cayman Chemical) in 25 mM bis-Tris-HCl buffer containing 0.1% (w/v) BSA were mixed in a 96 well plate. PHOME at indicated concentrations was added to the wells to initiate the reaction and fluorescence was read with an excitation wavelength of 330 nm and emission wavelength of 465 nm. The standard curve plotted from dilutions of the product, 6-methoxy-2-naphthaldehyde, was used to convert fluorescence reading (RFU/min) to sEH activity (nmol product formed/min). The reaction rate was obtained from the slope of the line from time=5 to 15 minutes for each substrate concentration, and analyzed using GraphPad Prism 7 and SigmaPlot 13.0 to determine Michaelis-Menten kinetic parameters.

[2] = tested on: choroidal neovascularization; settings: cited from earlier work
[3] = tested on: sEH; experiment: Lipid profiling of retina/choroid in L-CNV mice (19,20-EDP/DHDP ratio as sEH activity in vivo); set-up: species or system mouse; settings: 10 μM intravitreal, 3 days post-laser, vs vehicle treated controls
Experimental: The L-CNV mouse model and injections were performed as previously described. […] Compounds where indicated were injected a single time immediately post-laser treatment, delivered intravitreally using a 33-gauge needle, in a 0.5 μL volume. […] Vehicle alone (PBS+0.5% (v/v) DMSO) was used as negative control. […] Eyes were numbed with tetracaine solution before the injection, and triple antibiotic ointment was used immediately after the injection to prevent infection. Lipid Profiling
Mice were sacrificed 3 days post-laser-treatment, eyes were enucleated and retina/choroid layers were immediately separated and stored at −80° C.

[4] = target: T2, sEH activity in L-CNV eye tissue homogenates (Mus musculus, UniProt P34914); experiment: Tissue-based sEH activity assay using trans-stilbene oxide; format: biochemical; settings: 20 μM, 3 days post-laser-treatment, trans-stilbene oxide substrate
T2 construct: from tissue; host or cells: mouse eye homogenate (C57BL/6J, L-CNV), 100,000 x g supernatant
T2 sequence (P34914 1-554): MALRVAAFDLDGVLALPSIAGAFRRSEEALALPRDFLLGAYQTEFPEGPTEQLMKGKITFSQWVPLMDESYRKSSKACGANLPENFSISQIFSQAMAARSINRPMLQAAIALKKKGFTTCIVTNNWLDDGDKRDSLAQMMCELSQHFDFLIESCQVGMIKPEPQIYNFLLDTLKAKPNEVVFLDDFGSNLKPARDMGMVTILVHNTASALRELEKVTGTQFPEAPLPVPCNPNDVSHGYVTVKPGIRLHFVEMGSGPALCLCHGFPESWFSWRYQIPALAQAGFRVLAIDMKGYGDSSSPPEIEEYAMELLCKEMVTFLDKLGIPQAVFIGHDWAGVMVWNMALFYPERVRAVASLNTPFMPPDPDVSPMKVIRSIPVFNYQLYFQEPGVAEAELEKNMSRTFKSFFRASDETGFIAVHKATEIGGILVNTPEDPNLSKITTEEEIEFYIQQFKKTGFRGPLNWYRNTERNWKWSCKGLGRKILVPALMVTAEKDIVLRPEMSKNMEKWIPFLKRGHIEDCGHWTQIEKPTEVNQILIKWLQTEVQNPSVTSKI
Experimental: The sEH activity in tissue homogenates was assayed using trans-stilbene oxide (t-SO) as substrate. The assay is based on the hydrolysis of t-SO that is tracked as a decrease in the absorbance at 230 nm. L-CNV was induced as described above. After 3 days, enucleated eyes from both untreated and L-CNV mice were homogenized in 0.2 M sodium phosphate buffer, pH 7.4. To remove microsomal epoxide hydrolase and lenses, tissue extracts were centrifuged at 100,000×g for 30 minutes at 4° C. After protein estimation, 100 μL of tissue homogenates (100 μg/mL) and 98 μL of SH-11037 or 7 dissolved in DMSO/buffer (final 1% (v/v) DMSO) were added to a UV-transparent 96-well plate. After 5 minutes' incubation at room temperature, 2 μL of t-SO in ethanol (100 μM final concentration) was added to assay wells to initiate the reaction. The absorbance was read at 230 nm for 20 minutes. sEH activity was determined as follows:
sEH Activity=[(A0−A20)−(B0−B20)]/mg of protein in a reaction
Where A0 and A20 are absorbance of test wells read at 230 nm at time 0 and 20 minutes respectively, and B0 and B20 are absorbance of background wells read at 230 nm at time 0 and 20 minutes.

[5] = target: T3, soluble epoxide hydrolase (sEH) (Homo sapiens, UniProt P34913); experiment: Recombinant soluble epoxide hydrolase activity assay (fluorogenic substrate PHOME)
T3 sequence (P34913 1-555): T1 sequence (P34913 1-555)
Experimental: Compounds were dissolved in DMSO (final DMSO concentration=5% (v/v)). Activity was calculated according to:
% Initial Activity=[(FI15−FI0)/(FT15−FT0)]×100%
where FI is the background corrected fluorescence signal obtained in the presence of an inhibitor and FT is the background corrected fluorescence signal obtained for the total activity at times 0 and 15 minutes. IC50 values were calculated using GraphPad Prism v.

[6] = tested on: mouse choroidal sprouting; experiment: Choroidal sprouting assay (ex vivo); format: cell-based; settings: 0.1, 1, 10 μM, 48 hours, vs vehicle
Experimental: Benzisoxazole sEH inhibitor 7 was synthesized according to the method as described in Shen et al., Bioorg. […] Sprouting of endothelial cells from choroidal layers was tested as described in Sulaiman et al., Sci. Rep. […] The final concentration of DMSO in each well was 0.2% (v/v). Images were taken using an EVOS-fl digital microscope (AMG, Mill Creek, WA, USA) and data were analyzed as the sprouting distance in four different directions using ImageJ software v.1.48v (http://imagej.nih.gov/ij/).

[7] = tested on: choroidal neovascularization; experiment: Laser-induced choroidal neovascularization (L-CNV) mouse model, CNV lesion volume; format: in vivo; settings: single intravitreal injection, 14 days post-laser, vs vehicle

SMILES: COc1ccc(CC2COc3cc(OC)c(OC)c(OC)c3C2=O)cc1OC(=O)[C@H](Cc1ccccc1)NC(=O)OC(C)(C)C (stereo partly drawn) [SH-11037, (2S)-2-methoxy-5-((5,6,7-trimethoxy-4-oxochroman-3-yl)methyl)phenyl 2-((tert-butoxycarbonyl)amino)-3-phenylpropanoate]
- type of inhibition of sEH [1]: mixed-type inhibitor
- Ki [1]: 1730 ± 450 nM
- combination with anti-VEGF antibody in L-CNV ([2]; WO 2017/091473): synergize
- effective doses in L-CNV, intravitreal ([2]; previously shown (Sulaiman et al. 2016; WO 2017/091473)): > 1 µM
- ratio of 19,20-EDP to 19,20-DHDP in retina/choroid [3]: partially normalized
- sEH activity in L-CNV eye lysates [4]: normalized
- IC50 [5]: 150 nM

SMILES: FC(F)(F)c1ccc(Nc2noc3c(C(F)(F)F)cccc23)cc1 [compound 7, 7-(trifluoromethyl)-N-(4-(trifluoromethyl)phenyl) benzo[d]isoxazol-3-amine, reference compound]
- type of inhibition of sEH [1]: mixed-type inhibitor
- Ki ([1]; Dixon plot, n=3): 19.6 nM
- ability of choroidal tissues to form sprouts [6]: suppressed
- CNV lesion vascular volume [7]: dose-dependently suppressed
- sEH activity in L-CNV eye lysates [4]: normalized
- IC50 [5]: 9.5 nM

From US20240082211A1, “SOLUBLE EPOXIDE HYDROLASE AS A TARGET FOR OCULAR DISEASES” (Indiana University Research and Technology Corporation, priority 2017, published 2024)
